What was measured:
[1] = Anti-inflammatory activity: edema test provoked by carraghenin; type: in vivo; conditions: Rattus norvegicus; male rats 130 to 150 g, oral, simultaneous with 0.05 ml of 1% carraghenin in rear paw; paw volume at 2,4,6,8 and 24 hours; read-out: DA50 (dose which reduced the edema by 50%)
Procedure: The anti-inflammatory activity was determined by the edema test provoked by carraghenin in male rats weighing about 130 to 150 g which received 0.05 ml of sterile suspension of 1% carraghenin into the tibiotarsien articulation of the rear paw. Simultaneously the test product in a suspension of 0.25% carboxymethyl cellulose and 0.02% of Tween was orally administered. The volume of the paw was measured before the test and then 2,4,6,8 and 24 hours later. The intensity of inflammation was maximum at 4 to 6 hours after the injection of carraghenin and the differences in paw volume of controls and treated animals were evidence of anti-inflammatory action. The DA50 dose which is that which reduced the edema by 50% was 15 and 12 mg/kg for the products of Examples 2 and 10 respectively.

[2] = Analgesic activity: acetic acid-provoked stretching test based on Koster et al; type: in vivo; conditions: Mus musculus; mice, oral, 30 minutes before intraperitoneal acetic acid (1% solution, 0.01 ml/g); fasted 24 hours; 15 minute observation; read-out: DA50 (dose which diminished the number of stretchings by 50% as compared to the controls)
Procedure: The test was based on that of Koster et al [Fed. Proc., Vol. 1B (1959), p. 412] in which mice received an intraperitoneal injection of acetic acid to provoke repeated stretching and twisting movements which persist for more than 6 hours. An analgesic prevents or reduces this syndrome which is considered to be an exteriorization of a diffuse abdominal pain. A 1% solution of acetic acid in water was used and the dose […] the syndrome under these conditions was 0.01 ml/g or 100 mg/kg of acetic acid.
The test compound was orally administered to the mice 30 minutes before the acetic acid injection and the mice had been fasting for the previous 24 hours. The stretchings were counted for each mouse for a 15 minute observation period after the acetic acid injection and the dose which diminished the number of stretchings by 50% as compared to the controls (DA50) was 1.2 and 0.3 mg/kg for the compounds of Example 2 and 10 respectively.

SMILES | ED50 [1] [mg/kg] | ED50 [2] [mg/kg]
CC(O)c1nc2c(C(F)(F)F)cccc2c(O)c1C(=O)Nc1nccs1 (stereo not shown) [Example 2, 4-hydroxy-2-(1-hydroxyethyl)-N-(2-thiazolyl)-8-trifluoromethyl-3-quinoline-carboxamide] | 15 | 1.2
CCC(O)c1nc2c(C(F)(F)F)cccc2c(O)c1C(=O)Nc1nccs1 (stereo not shown) [Example 10, 4-hydroxy-2-(1-hydroxy-propyl)-N-(2-thiazolyl)-8-trifluoromethyl-3-quinoline-carboxamide] | 12 | 0.3

Source: patent US4596875A, “Preparation of amides of 4-hydroxy-3-quinoline-carboxylic acid” (Roussel Uclaf, priority 1982, dated 1986)
